Data reported in US20170050957A1, “4-AMINO-6-(HETEROCYCLIC)PICOLINATES AND 6-AMINO-2-(HETEROCYCLIC)PYRIMIDINE-4-CARBOXYLATES AND THEIR USE AS HERBICIDES” (Dow AgroSciences LLC, priority 2013, published 2017).
Read-outs that look alike come from different tables or passages of the source.

How the values were obtained:
[1] = system: Key Broadleaf Weed and Crop Species; assay: Post-emergent Test II herbicidal activity (Table 15); assay type: in vivo; conditions: post-emergence, 336 h, 14 d; for pest or weed control at 35 g/ha: 35 g ai/ha; for pest or weed control at 70 g/ha: 70 g ai/ha; for pest or weed control at 140 g/ha: 140 g ai/ha
Summary of the method: (§1)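 Herbicidal effect scored as percent visual injury, 14 d after post-emergent application. Spray solutions contained acetone, DMSO, isopropyl alcohol, crop oil concentrate and surfactant, applied at 187 L/ha to young plants (1-2 true leaves).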

[2] = system: Key Grass and Sedge Weeds as well as Grass Crops; assay: Post-emergent Test II herbicidal activity (Table 16); assay type: in vivo; conditions: post-emergence, 336 h, 14 days after application; for pest or weed control at 35 g/ha: 35 g ai/ha; for pest or weed control at 70 g/ha: 70 g ai/ha; for pest or weed control at 140 g/ha: 140 g ai/ha
Summary of the method: as §1

[3] = Abutilon theophrasti, velvetleaf (Abutilon theophrasti), read-out: Visual Growth Reduction (%) 14 Days After Application, ABUTH
[4] = Brassica napus, oilseed rape, canola (Brassica napus), read-out: Visual Growth Reduction (%) 14 Days After Application, BRSNN
[5] = Chenopodium album, lambsquarters (Chenopodium album), read-out: Visual Growth Reduction (%) 14 Days After Application, CHEAL
[6] = Euphorbia heterophylla, wild poinsettia (Euphorbia heterophylla), read-out: Visual Growth Reduction (%) 14 Days After Application, EPHHL
[7] = Helianthus annuus, sunflower (Helianthus annuus), read-out: Visual Growth Reduction (%) 14 Days After Application, HELAN
[8] = Cyperus esculentus, yellow nutsedge (Cyperus esculentus), read-out: Visual Growth Reduction (%) 14 Days After Application CYPES
[9] = Echinochloa crus-galli, barnyardgrass (Echinochloa crus-galli), read-out: Visual Growth Reduction (%) 14 Days After Application ECHCG
[10] = Oryza sativa, rice (Oryza sativa), read-out: Visual Growth Reduction (%) 14 Days After Application ORYSA
[11] = Setaria faberi, giant foxtail (Setaria faberi), read-out: Visual Growth Reduction (%) 14 Days After Application SETFA
[12] = Triticum aestivum, wheat, spring (Triticum aestivum), read-out: Visual Growth Reduction (%) 14 Days After Application TRZAS
[13] = Zea mays, maize, corn (Zea mays), read-out: Visual Growth Reduction (%) 14 Days After Application ZEAMX
[14] = Amaranthus retroflexus, redroot pigweed (Amaranthus retroflexus), read-out: Visual Growth Reduction (%) 14 Days After Application, AMARE

| Compound | pest or weed control at 35 g/ha [1, 3] [%] | pest or weed control at 70 g/ha [1, 3] [%] | pest or weed control at 140 g/ha [1, 3] [%] | pest or weed control at 35 g/ha [1, 4] [%] | pest or weed control at 70 g/ha [1, 4] [%] | pest or weed control at 140 g/ha [1, 4] [%] | pest or weed control at 35 g/ha [1, 5] [%] | pest or weed control at 70 g/ha [1, 5] [%] | pest or weed control at 140 g/ha [1, 5] [%] | pest or weed control at 35 g/ha [1, 6] [%] | pest or weed control at 70 g/ha [1, 6] [%] | pest or weed control at 140 g/ha [1, 6] [%] | pest or weed control at 35 g/ha [1, 7] [%] | pest or weed control at 70 g/ha [1, 7] [%] | pest or weed control at 140 g/ha [1, 7] [%] | pest or weed control at 35 g/ha [2, 8] [%] | pest or weed control at 70 g/ha [2, 8] [%] | pest or weed control at 140 g/ha [2, 8] [%] | pest or weed control at 35 g/ha [2, 9] [%] | pest or weed control at 70 g/ha [2, 9] [%] | other results |
| --- | --- | --- | --- | --- | --- | --- | --- | --- | --- | --- | --- | --- | --- | --- | --- | --- | --- | --- | --- | --- | --- |
| COC(=O)c1nc(-c2cccc3cn[nH]c23)c(F)c(N)c1Cl [Compound 4.13] | 0 to 29 | 0 to 29 | 0 to 29 | 0 to 29 | 0 to 29 | 0 to 29 | 0 to 29 | 0 to 29 | 60 to 74 | 0 to 29 | 0 to 29 | 0 to 29 | 0 to 29 | 0 to 29 | 0 to 29 | 0 to 29 | 0 to 29 | 0 to 29 | 0 to 29 | 0 to 29 | pest or weed control at 140 g/ha [2, 9]: 0 to 29%; pest or weed control at 35 g/ha [2, 10]: 0 to 29%; pest or weed control at 70 g/ha [2, 10]: 0 to 29%; pest or weed control at 140 g/ha [2, 10]: 0 to 29%; pest or weed control at 35 g/ha [2, 11]: 0 to 29%; pest or weed control at 70 g/ha [2, 11]: 0 to 29%; pest or weed control at 140 g/ha [2, 11]: 0 to 29%; pest or weed control at 35 g/ha [2, 12]: 0 to 29%; pest or weed control at 70 g/ha [2, 12]: 0 to 29%; pest or weed control at 140 g/ha [2, 12]: 0 to 29%; pest or weed control at 35 g/ha [2, 13]: 0 to 29%; pest or weed control at 70 g/ha [2, 13]: 0 to 29%; pest or weed control at 140 g/ha [2, 13]: 0 to 29%; melting point: 207 to 210 °C |
| COC(=O)c1nc(-c2cccc3ccsc23)c(F)c(N)c1Cl [Compound 3.24] | 0 to 29 | 0 to 29 | 0 to 29 | 45 to 59 | 45 to 59 | 45 to 59 | 85 to 94 | 95 to 100 | 95 to 100 | 0 to 29 | 0 to 29 | 0 to 29 | 60 to 74 | 60 to 74 | 85 to 94 | 0 to 29 | 0 to 29 | 0 to 29 | 0 to 29 | 0 to 29 | pest or weed control at 35 g/ha [1, 14]: 85 to 94%; pest or weed control at 70 g/ha [1, 14]: 85 to 94%; pest or weed control at 140 g/ha [1, 14]: 95 to 100%; pest or weed control at 140 g/ha [2, 9]: 0 to 29%; pest or weed control at 35 g/ha [2, 10]: 0 to 29%; pest or weed control at 70 g/ha [2, 10]: 0 to 29%; pest or weed control at 140 g/ha [2, 10]: 0 to 29%; pest or weed control at 35 g/ha [2, 11]: 0 to 29%; pest or weed control at 70 g/ha [2, 11]: 0 to 29%; pest or weed control at 140 g/ha [2, 11]: 0 to 29%; pest or weed control at 35 g/ha [2, 12]: 0 to 29%; pest or weed control at 70 g/ha [2, 12]: 0 to 29%; pest or weed control at 140 g/ha [2, 12]: 0 to 29%; pest or weed control at 35 g/ha [2, 13]: 0 to 29%; pest or weed control at 70 g/ha [2, 13]: 0 to 29%; pest or weed control at 140 g/ha [2, 13]: 0 to 29%; melting point: 121 to 123 °C |
